pIC50: −log10 of the molar value. The source made the active and inactive calls. No cut-off for these calls is given here.

The target in assay [1] is Small conductance calcium-activated potassium channel protein 1 (Homo sapiens) (UniProt Q92952). The assay can be described thus: Inhibition of human recombinant Skca channel at 10 uM by radioligand binding assay.
Assay [2] is filed under the species Homo sapiens. The assay can be described thus: Inhibition of human recombinant sst receptor at 10 uM by radioligand binding assay.
Assay [3] addresses D(2) dopamine receptor (Homo sapiens) (UniProt P14416). The assay can be described thus: Inhibition of human recombinant D2S receptor at 10 uM by radioligand binding assay.
Assay [4] addresses T1, Thromboxane A2 receptor (Homo sapiens) (UniProt P21731).
T1 sequence (whole entry): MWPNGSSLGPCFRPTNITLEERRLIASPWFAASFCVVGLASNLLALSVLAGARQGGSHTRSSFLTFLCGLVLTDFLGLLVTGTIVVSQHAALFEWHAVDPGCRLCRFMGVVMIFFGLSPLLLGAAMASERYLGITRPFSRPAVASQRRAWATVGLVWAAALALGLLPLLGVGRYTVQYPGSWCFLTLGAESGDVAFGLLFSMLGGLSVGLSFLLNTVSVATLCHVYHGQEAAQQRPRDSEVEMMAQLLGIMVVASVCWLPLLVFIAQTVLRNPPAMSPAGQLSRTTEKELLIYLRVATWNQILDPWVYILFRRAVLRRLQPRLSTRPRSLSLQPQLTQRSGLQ
Briefly: Inhibition of human recombinant TP receptor at 10 uM by radioligand binding assay.

In assay [5] the target is T2, Muscarinic acetylcholine receptor M1 (Homo sapiens) (UniProt P11229).
T2 sequence (whole entry): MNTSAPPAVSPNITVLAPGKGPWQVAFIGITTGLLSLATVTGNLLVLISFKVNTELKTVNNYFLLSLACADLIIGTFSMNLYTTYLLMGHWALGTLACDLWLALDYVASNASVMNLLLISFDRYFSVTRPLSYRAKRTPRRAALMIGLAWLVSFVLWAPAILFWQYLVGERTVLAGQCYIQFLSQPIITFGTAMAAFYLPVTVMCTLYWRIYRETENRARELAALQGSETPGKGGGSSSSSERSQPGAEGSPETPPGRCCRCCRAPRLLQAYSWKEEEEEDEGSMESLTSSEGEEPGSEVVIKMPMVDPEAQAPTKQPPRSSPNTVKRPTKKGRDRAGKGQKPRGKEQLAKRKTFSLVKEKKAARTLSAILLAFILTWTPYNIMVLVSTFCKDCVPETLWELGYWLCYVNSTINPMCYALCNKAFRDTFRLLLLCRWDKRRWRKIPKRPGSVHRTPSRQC
The assay can be described thus: Inhibition of human recombinant M1 receptor at 10 uM by radioligand binding assay.

Assay [6] addresses D(1A) dopamine receptor (Homo sapiens) (UniProt P21728). Briefly: Inhibition of human recombinant D1 receptor at 10 uM by radioligand binding assay.
The target of assay [7] is T3, C-C chemokine receptor type 1 (Homo sapiens) (UniProt P32246).
T3 sequence (whole entry): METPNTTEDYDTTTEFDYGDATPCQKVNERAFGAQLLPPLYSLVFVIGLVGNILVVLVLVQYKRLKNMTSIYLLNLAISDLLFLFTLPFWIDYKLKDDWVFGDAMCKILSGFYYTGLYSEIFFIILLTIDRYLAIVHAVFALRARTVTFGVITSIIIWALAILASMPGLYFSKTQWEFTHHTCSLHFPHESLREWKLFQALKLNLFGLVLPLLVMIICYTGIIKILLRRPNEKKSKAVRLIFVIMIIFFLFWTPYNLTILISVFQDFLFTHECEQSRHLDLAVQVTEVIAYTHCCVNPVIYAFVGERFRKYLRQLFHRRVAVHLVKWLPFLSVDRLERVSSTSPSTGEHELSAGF
Briefly: Inhibition of human recombinant CCR1 receptor at 10 uM by radioligand binding assay.

The test system of assay [8] is A549. The assay can be described thus: Cytotoxicity against human A549 cells. It is filed as functional, cell-based.

Small conductance calcium-activated potassium channel protein 1 (Homo sapiens), sequence (Q92952 whole entry): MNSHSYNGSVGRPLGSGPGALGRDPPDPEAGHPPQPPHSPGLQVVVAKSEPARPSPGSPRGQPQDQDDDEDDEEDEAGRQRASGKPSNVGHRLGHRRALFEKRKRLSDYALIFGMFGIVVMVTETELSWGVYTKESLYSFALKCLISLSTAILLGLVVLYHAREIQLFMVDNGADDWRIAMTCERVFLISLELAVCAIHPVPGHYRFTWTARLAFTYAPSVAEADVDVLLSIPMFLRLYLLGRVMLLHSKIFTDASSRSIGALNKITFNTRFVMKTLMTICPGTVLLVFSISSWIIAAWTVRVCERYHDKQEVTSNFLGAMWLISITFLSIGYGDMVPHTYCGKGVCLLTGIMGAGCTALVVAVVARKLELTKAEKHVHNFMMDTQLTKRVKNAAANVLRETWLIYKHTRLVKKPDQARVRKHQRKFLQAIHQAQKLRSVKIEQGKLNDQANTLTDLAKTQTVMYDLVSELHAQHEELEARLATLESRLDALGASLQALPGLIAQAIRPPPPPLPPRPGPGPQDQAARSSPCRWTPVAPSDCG
D(2) dopamine receptor (Homo sapiens), sequence (P14416 whole entry): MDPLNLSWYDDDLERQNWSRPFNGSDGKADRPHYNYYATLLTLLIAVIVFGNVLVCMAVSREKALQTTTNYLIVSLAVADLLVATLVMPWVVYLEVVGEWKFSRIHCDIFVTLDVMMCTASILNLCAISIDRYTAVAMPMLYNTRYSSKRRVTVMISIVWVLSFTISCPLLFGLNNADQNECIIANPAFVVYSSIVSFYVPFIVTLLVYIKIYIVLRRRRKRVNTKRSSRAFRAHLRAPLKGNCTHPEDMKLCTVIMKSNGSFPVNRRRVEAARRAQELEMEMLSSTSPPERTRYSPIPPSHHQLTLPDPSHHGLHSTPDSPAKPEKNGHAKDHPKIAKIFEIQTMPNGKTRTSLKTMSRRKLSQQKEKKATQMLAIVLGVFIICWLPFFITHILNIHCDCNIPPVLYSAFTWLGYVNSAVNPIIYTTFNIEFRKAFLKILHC
D(1A) dopamine receptor (Homo sapiens), sequence (P21728 whole entry): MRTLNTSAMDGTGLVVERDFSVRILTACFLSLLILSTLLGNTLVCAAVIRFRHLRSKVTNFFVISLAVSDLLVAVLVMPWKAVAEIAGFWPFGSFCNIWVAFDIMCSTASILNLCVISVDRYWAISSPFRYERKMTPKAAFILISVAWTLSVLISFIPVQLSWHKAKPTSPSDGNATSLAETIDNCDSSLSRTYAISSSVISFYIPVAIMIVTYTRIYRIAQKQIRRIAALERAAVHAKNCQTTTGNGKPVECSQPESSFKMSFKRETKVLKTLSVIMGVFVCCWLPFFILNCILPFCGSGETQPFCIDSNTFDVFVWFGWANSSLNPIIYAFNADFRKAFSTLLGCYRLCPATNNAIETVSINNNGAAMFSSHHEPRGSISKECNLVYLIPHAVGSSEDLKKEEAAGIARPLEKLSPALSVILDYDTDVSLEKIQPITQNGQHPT

Take `Cc1cc(C(N)=O)ccc1-c1c(-c2ccc(-n3ccnc3)cc2)ccn1CCC(=O)O`: the inhibition entry in assay [1], in assay [2], in assay [3], in assay [4], in assay [5] and in assay [6] was “inactive” in each case. The inhibition entry in assay [7] was “inactive”.
On to `COc1ccc(-c2ccn(-c3ccc(C(=O)O)c(O)c3)c2-c2ccc(C(N)=O)cc2C)cc1`, for which the inhibition result in assay [1], in assay [2], in assay [3], in assay [4], in assay [5] and in assay [6] was “Active” each time. The inhibition result in assay [7] is “Active”.
On to `Cc1cc(C(N)=O)ccc1-c1c(CCC(=O)O)ccn1-c1ccc(-n2ccnc2)cc1`, for which the inhibition result in assay [1], in assay [2], in assay [3], in assay [4], in assay [5] and in assay [6] was “inactive” each time. For the same compound, the inhibition entry in assay [7] was “inactive”. Further, the pIC50 – broadly, the negative decadic logarithm of the IC50, by convention in mol/L – in assay [8] was less than 3.60.
Take `Cc1cc(C(N)=O)ccc1-n1c(CCC(=O)O)ccc1-c1ccc(-n2ccnc2)cc1` [N6022]: the inhibition entry in assay [1], in assay [2], in assay [3], in assay [4], in assay [5] and in assay [6] was “inactive” each time. Besides, the inhibition result in assay [7] is “inactive”.
Take `COc1ccc(-c2ccn(-c3ccc(O)c([N+](=O)[O-])c3)c2-c2ccc(C(N)=O)cc2C)cc1`: the inhibition result in assay [1], in assay [2], in assay [3], in assay [4], in assay [5] and in assay [6] was “Active” throughout. For the same compound, in assay [7], the inhibition result was “Active”.

The record behind these values is ChEMBL document CHEMBL1781986, “Structure-activity relationships of pyrrole based S-nitrosoglutathione reductase inhibitors: pyrrole regioisomers and propionic acid replacement” (Bioorg Med Chem Lett, 2011).
